Assay results taken from patent US9989543B2, “Composition, device, and method for detecting olmesartan and improving compliance in treating hypertension” (Autotelic LLC, priority 2016, dated 2018).
Where two headings read alike, the source gives them in different places.

Experiments:
[1] = Olmesartan blood concentration/AUC after 7-day versus single-day dosing; assay type: in vivo, Korean healthy males; conditions: for % Reduction: Compliance-7X vs Non-Compliance-1X
Experimental: Drug exposure as AUC was studied among Korean healthy males aged between 20 and 50 years in two clinical studies: (1) taking drug regularly for 7 days (subjects were administered either 1 tablet of 40 mg olmesartan medoxomil, 1 tablet of 20 mg rosuvastatin calcium, or 1 tablet each of both agents orally every 24 hours for 7 days) and (2) taking drug only one day (58 subjects divided into 2 cohorts and treated over 2 periods; one tablet of ST-101 (FDC olmesartan and rosuvastatin) tablet of 40 mg olmesartan medoxomil/20 mg rosuvastatin calcium was administered once orally as the test drug, or 1 tablet each of 40 mg olmesartan medoxomil and 20 mg rosuvastatin calcium was co-administered once orally as the comparator). Pharmacokinetic analyses were performed. For PK analyses, blood samples were collected at 0 (pre-dose), 0.5, 2, 2.5, 3, 4, 5, 6, 7, 8, 10, 12, 16, 24, and 48 hr after dosing of olmesartan either as FDC or as single agent. The results are graphically illustrated in FIG. 1. FIG. 1 compares olmesartan AUC (area-under-the-curve) for subjects taking olmesartan regularly for 7 days (Multiple Dosing ×7, solid circles) and for subjects taking olmesartan only 1 day (Single Dosing ×1, open circles): mean+/−95% confidence interval (CI) for subjects taking olmesartan regularly for 7 days. […] The differences between compliance and non-compliance across a 24 hr period were determined (see Table 1). The % reduction in blood concentration can be used to determine if the patient is missing his/her medication. […] There is about 40 ng/mL remaining at 24 hr, which accumulated to about 60 ng/mL following consistently medication for 7 days. The comparison between full compliance for 7 days versus noncompliance is tabulated below.

[2] = as above; assay type: in vivo, Korean healthy males
[3] = highest dose, olmesartan at 40 mg/day; cited from earlier work

- % Reduction ([1]; Time 0 hrs): Infinity
- % Reduction ([1]; Time 1 hrs): 26.84%
- % Reduction ([1]; Time 2 hrs): 12.43%
- % Reduction ([1]; Time 2.5 hrs): 13.33%
- % Reduction ([1]; Time 3 hrs): 19.97%
- % Reduction ([1]; Time 4 hrs): 19.85%
- % Reduction ([1]; Time 5 hrs): 15.71%
- % Reduction ([1]; Time 6 hrs): 20.17%
- % Reduction ([1]; Time 8 hrs): 24.95%
- % Reduction ([1]; Time 10 hrs): 30.40%
- % Reduction ([1]; Time 12 hrs): 31.90%
- % Reduction ([1]; Time 16 hrs): 40.22%
- % Reduction ([1]; Time 24 hrs): 61.33%
- concentration at 24 h ([1]; male, human, blood, oral, 40 mg, 24 hr, following consistently medication for 7 days, read-out: blood concentration remaining at 24 hr, accumulated): ~60 ng/mL
- concentration at 0 h ([1]; male, human, blood, oral, 40 mg, Time 0 hrs, dosing every 24 hours for 7 days, read-out: Blood concentration (ng/mL)/Compliance-7X): 54.1 ng/mL
- concentration at 1.5 h ([1]; male, human, blood, oral, 40 mg, dosing every 24 hours for 7 days, read-out: Blood concentration (ng/mL)/Compliance-7X): 1060 ng/mL
- concentration at 1.5 h ([1]; male, human, blood, oral, 40 mg, drug taken only one day, read-out: Blood concentration (ng/mL)/Non-Compliance-1X): 932 ng/mL
- concentration at 2 h ([1]; male, human, blood, oral, 40 mg, Time 2 hrs, dosing every 24 hours for 7 days, read-out: Blood concentration (ng/mL)/Compliance-7X): 1130 ng/mL
- concentration at 2.5 h ([1]; male, human, blood, oral, 40 mg, Time 2.5 hrs, dosing every 24 hours for 7 days, read-out: Blood concentration (ng/mL)/Compliance-7X): 1110 ng/mL
- concentration at 3 h ([1]; male, human, blood, oral, 40 mg, Time 3 hrs, dosing every 24 hours for 7 days, read-out: Blood concentration (ng/mL)/Compliance-7X): 1090 ng/mL
- concentration at 4 h ([1]; male, human, blood, oral, 40 mg, Time 4 hrs, dosing every 24 hours for 7 days, read-out: Blood concentration (ng/mL)/Compliance-7X): 911 ng/mL
- concentration at 5 h ([1]; male, human, blood, oral, 40 mg, Time 5 hrs, dosing every 24 hours for 7 days, read-out: Blood concentration (ng/mL)/Compliance-7X): 714 ng/mL
- concentration at 6 h ([1]; male, human, blood, oral, 40 mg, Time 6 hrs, dosing every 24 hours for 7 days, read-out: Blood concentration (ng/mL)/Compliance-7X): 543 ng/mL
- concentration at 8 h ([1]; male, human, blood, oral, 40 mg, Time 8 hrs, dosing every 24 hours for 7 days, read-out: Blood concentration (ng/mL)/Compliance-7X): 361 ng/mL
- concentration at 10 h ([1]; male, human, blood, oral, 40 mg, Time 10 hrs, dosing every 24 hours for 7 days, read-out: Blood concentration (ng/mL)/Compliance-7X): 263 ng/mL
- concentration at 12 h ([1]; male, human, blood, oral, 40 mg, Time 12 hrs, dosing every 24 hours for 7 days, read-out: Blood concentration (ng/mL)/Compliance-7X): 193 ng/mL
- concentration at 16 h ([1]; male, human, blood, oral, 40 mg, Time 16 hrs, dosing every 24 hours for 7 days, read-out: Blood concentration (ng/mL)/Compliance-7X): 123 ng/mL
- concentration at 24 h ([1]; male, human, blood, oral, 40 mg, Time 24 hrs, dosing every 24 hours for 7 days, read-out: Blood concentration (ng/mL)/Compliance-7X): 66.2 ng/mL
- concentration at 24 h ([1]; male, human, blood, oral, 24 hr, before accumulation, read-out: blood concentration remaining at 24 hr): ~40 ng/mL
- concentration at 0 h ([1]; male, human, blood, oral, Time 0 hrs, drug taken only one day, read-out: Blood concentration (ng/mL)/Non-Compliance-1X): 0 ng/mL
- concentration at 1 h ([1]; male, human, blood, oral, Time 1 hrs, drug taken only one day, read-out: Blood concentration (ng/mL)/Non-Compliance-1X): 677 ng/mL
- concentration at 2 h ([1]; male, human, blood, oral, Time 2 hrs, drug taken only one day, read-out: Blood concentration (ng/mL)/Non-Compliance-1X): 1000 ng/mL
- concentration at 2.5 h ([1]; male, human, blood, oral, Time 2.5 hrs, drug taken only one day, read-out: Blood concentration (ng/mL)/Non-Compliance-1X): 976 ng/mL
- concentration at 3 h ([1]; male, human, blood, oral, Time 3 hrs, drug taken only one day, read-out: Blood concentration (ng/mL)/Non-Compliance-1X): 912 ng/mL
- concentration at 4 h ([1]; male, human, blood, oral, Time 4 hrs, drug taken only one day, read-out: Blood concentration (ng/mL)/Non-Compliance-1X): 760 ng/mL
- concentration at 5 h ([1]; male, human, blood, oral, Time 5 hrs, drug taken only one day, read-out: Blood concentration (ng/mL)/Non-Compliance-1X): 617 ng/mL
- concentration at 6 h ([1]; male, human, blood, oral, Time 6 hrs, drug taken only one day, read-out: Blood concentration (ng/mL)/Non-Compliance-1X): 452 ng/mL
- concentration at 8 h ([1]; male, human, blood, oral, Time 8 hrs, drug taken only one day, read-out: Blood concentration (ng/mL)/Non-Compliance-1X): 289 ng/mL
- concentration at 10 h ([1]; male, human, blood, oral, Time 10 hrs, drug taken only one day, read-out: Blood concentration (ng/mL)/Non-Compliance-1X): 202 ng/mL
- concentration at 12 h ([1]; male, human, blood, oral, Time 12 hrs, drug taken only one day, read-out: Blood concentration (ng/mL)/Non-Compliance-1X): 146 ng/mL
- concentration at 16 h ([1]; male, human, blood, oral, Time 16 hrs, drug taken only one day, read-out: Blood concentration (ng/mL)/Non-Compliance-1X): 87.9 ng/mL
- concentration at 24 h ([1]; male, human, blood, oral, Time 24 hrs, drug taken only one day, read-out: Blood concentration (ng/mL)/Non-Compliance-1X): 41.1 ng/mL
- AUC ([1]; male, human, blood, oral, population of subjects receiving olmesartan at 40 mg/day, daily administration, read-out: median AUC (target AUC)): ~7000 ng·h/mL
- clearance ([1]; much of the drug gone from the system at 48 hr): rapid clearance
- % Reduction ([2]; Time 1.5 hrs, Compliance-7X vs Non-Compliance-1X): 14.15%
- concentration at 1 h ([2]; male, human, blood, oral, 40 mg, Time 1 hrs, dosing every 24 hours for 7 days, read-out: Blood concentration (ng/mL)/Compliance-7X): 858 ng/mL
SMILES: CCCc1nc(C(C)(C)O)c(C(=O)O)n1Cc1ccc(-c2ccccc2-c2nnn[nH]2)cc1 [olmesartan]
- subjects achieving target blood pressure reduction [3]: about 50%
